In patent US20230072421A1, “TARGETED RADIOPHARMACEUTICALS FOR THE DIAGNOSIS AND TREATMENT OF PROSTATE CANCER” (Bayer AS, priority 2019, published 2023):

Molecular target: T1, PSMA-expressing LNCaP cells (Homo sapiens, UniProt Q04609)
T1 construct: PSMA-expressing LNCaP cells; endogenous in cells; host or cells: LNCaP
Experiment: Binding competition assay against 3H-PSMA-617 on LNCaP cells
Conditions: for competition against 3H-PSMA-617 on PSMA-expressing LNCaP cells (in words): comparison between examples
Protocol: Cells were incubated at 37° C. and 5% CO2 over night. […] After addition of the compounds in growth media the cells were swiveled slightly on a shaker mixing for 10 min followed by incubation for 2 h at 37° C., 5% C02. Following the incubation time the supernatant was removed by pipetting and cells were washed twice with ice cold PBS (total of 800 μl). Cells were lysed in 500 μl of 0.3M NaOH (PanReac AppliChem ITW Reagents) by vigorous shaking for 15 min and the cell lysated pipetted into scintillator tubes (S207-[…]® Scintillation Vials 6.5 ml #S207, Simport). In the following the wells were washed with 500 μl PBS and the washing PBS added to the corresponding samples in the sincitallator tubes. To each sample in the scintillator tubes 4 mL of Ultima Gold liquid scintillation cocktail (Sigma-Aldrich #L8286) was added and the samples let stand for at least 30 min. Thereafter radioactivity was counted in a Tri-Carb Liquid Scinzillation Analyzer (Perkin Elmer).

[1] = LNCaP cells, 10 nM 3H-PSMA-617, competing non-radiolabeled compound 10 nM, 2 h at 37° C., triplicates
[2] = LNCaP cells, 10 nM 3H-PSMA-617, competing non-radiolabeled compound 100 nM, 2 h at 37° C., triplicates

T1 sequence (Q04609 whole entry): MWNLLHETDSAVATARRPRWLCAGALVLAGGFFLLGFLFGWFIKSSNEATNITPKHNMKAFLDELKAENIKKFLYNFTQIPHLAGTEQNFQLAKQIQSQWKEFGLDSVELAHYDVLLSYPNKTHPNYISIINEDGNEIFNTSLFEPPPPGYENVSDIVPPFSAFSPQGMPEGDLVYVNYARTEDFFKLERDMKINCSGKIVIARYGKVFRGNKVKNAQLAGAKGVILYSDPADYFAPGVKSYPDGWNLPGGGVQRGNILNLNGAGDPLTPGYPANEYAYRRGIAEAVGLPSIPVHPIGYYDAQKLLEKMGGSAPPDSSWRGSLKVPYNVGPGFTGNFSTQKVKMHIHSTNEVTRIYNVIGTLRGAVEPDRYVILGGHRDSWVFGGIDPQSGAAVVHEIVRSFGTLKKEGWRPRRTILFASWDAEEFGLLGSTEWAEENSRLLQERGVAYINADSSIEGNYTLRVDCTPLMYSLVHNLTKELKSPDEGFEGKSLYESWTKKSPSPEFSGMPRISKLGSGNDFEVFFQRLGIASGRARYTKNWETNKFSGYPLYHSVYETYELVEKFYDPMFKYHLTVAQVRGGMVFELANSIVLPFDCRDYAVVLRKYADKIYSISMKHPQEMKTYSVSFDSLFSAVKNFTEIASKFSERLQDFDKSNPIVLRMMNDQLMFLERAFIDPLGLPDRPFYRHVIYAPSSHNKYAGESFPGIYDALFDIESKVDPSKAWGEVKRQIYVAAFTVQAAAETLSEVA

SMILES	% remaining 3H-PSMA-617 @ 10 nM (mean) [1] [%]	% remaining 3H-PSMA-617 @ 100 nM (mean) [2] [%]	remaining activity at 0.01 µM [1] [%]	remaining activity at 0.1 µM [2] [%]	competition against 3H-PSMA-617 on PSMA-expressing LNCaP cells (in words)
O=C(O)CC[C@H](NC(=O)N[C@@H](CCCCNC(=O)[C@H](Cc1ccc2ccccc2c1)NC(=O)[C@H]1CC[C@H](CNC(=O)C[N+]23CC[N+]45CC[N+]67CC[N+]8(CC2)CC(=O)[O][Th]3486([O]C(=O)C5)[O]C(=O)C7)CC1)C(=O)O)C(=O)O (stereo partly drawn) [Example 1-B-232Th, {3-[(naphthalen-2-yl)methyl]-1,4,12-trioxo-1-{4-[(2-{4,7,10-tris[(carboxy-kappaO)methyl]-1,4,7,10-tetraazacyclododecan-1-yl-kappa^4N^1,N^4,N^7,N^10}acetamido)methyl]cyclohexyl}-2,5,11,13-tetraazahexadecane-10,14,16-tricarboxylato(4−)}thorium(3+)]	71	12			
CC(=O)NCCCC[C@H](NC(=O)[C@H]1CC[C@H](CN)CC1)C(=O)NCCCC[C@H](NC(=O)N[C@@H](CCC(=O)O)C(=O)O)C(=O)O [Example 11-A, N^6—{N^6-acetyl-N^2-[(1r,4S)-4-(aminomethyl)cyclohexane-1-carbonyl]-L-lysyl}-N^2-{[(1S)-1,3-dicarboxypropyl]carbamoyl}-L-lysine]			117	146	
COc1c(C[C@@H](NC(=O)[C@H]2CC[C@H](CNC(=O)CN3CCN(CC(=O)O)CCN(CC(=O)O)CCN(CC(=O)O)CC3)CC2)C(=O)NCCCC[C@H](NC(=O)N[C@@H](CCC(=O)O)C(=O)O)C(=O)O)ccc2ccccc12 [Example 33-B, (3R,10S,14S)-3-[(1-methoxynaphthalen-2-yl)methyl]-1,4,12-trioxo-1-[(1r,4S)-4-({2-[4,7,10-tris(carboxymethyl)-1,4,7,10-tetraazacyclododecan-1-yl]acetamido}methyl)cyclohexyl]-2,5,11,13-tetraazahexadecane-10,14,16-tricarboxylic acid]			114	40	
Cc1ccc(C[C@H](NC(=O)[C@H]2CC[C@H](CN)CC2)C(=O)NCCCC[C@H](NC(=O)N[C@@H](CCC(=O)O)C(=O)O)C(=O)O)cc1 [Example 13-A, N^6—{N-[(1r,4S)-4-(aminomethyl)cyclohexane-1-carbonyl]-4-methyl-L-phenylalanyl}-N^2-{[(1S)-1,3-dicarboxypropyl]carbamoyl}-L-lysine]			108	124	
NC[C@H]1CC[C@H](C(=O)N[C@H](Cc2ccc3cccnc3c2)C(=O)NCCCC[C@H](NC(=O)N[C@@H](CCC(=O)O)C(=O)O)C(=O)O)CC1 [Example 45-A, (3R,10S,14S)-1-[(1r,4S)-4-(aminomethyl)cyclohexyl]-1,4,12-trioxo-3-[(quinolin-7-yl)methyl]-2,5,11,13-tetraazahexadecane-10,14,16-tricarboxylic acid]			93	87	
CNc1cc2ccccc2cc1C[C@@H](NC(=O)[C@H]1CC[C@H](CNC(=O)CN2CCN(CC(=O)O)CCN(CC(=O)O)CCN(CC(=O)O)CC2)CC1)C(=O)NCCCC[C@H](NC(=O)N[C@@H](CCC(=O)O)C(=O)O)C(=O)O [Example 39-B, (3R,10S,14S)-3-{[3-(methylamino)naphthalen-2-yl]methyl}-1,4,12-trioxo-1-[(1r,4S)-4-({2-[4,7,10-tris(carboxymethyl)-1,4,7,10-tetraazacyclododecan-1-yl]acetamido}methyl)cyclohexyl]-2,5,11,13-tetraazahexadecane-10,14,16-tricarboxylic acid]			81	32	
Cc1ccccc1C[C@H](NC(=O)[C@H]1CC[C@H](CN)CC1)C(=O)NCCCC[C@H](NC(=O)N[C@@H](CCC(=O)O)C(=O)O)C(=O)O [Example 12-A, N^6—{N-[(1r,4S)-4-(aminomethyl)cyclohexane-1-carbonyl]-2-methyl-L-phenylalanyl}-N^2-{[(1S)-1,3-dicarboxypropyl]carbamoyl}-L-lysine]			158	128	
NC[C@H]1CC[C@H](C(=O)N[C@@H](Cc2cnc3ccccc3c2)C(=O)NCCCC[C@H](NC(=O)N[C@@H](CCC(=O)O)C(=O)O)C(=O)O)CC1 [Example 22-A, N^6—{N-[(1r,4S)-4-(aminomethyl)cyclohexane-1-carbonyl]-3-(quinolin-3-yl)-L-alanyl}-N^2-{[(1S)-1,3-dicarboxypropyl]carbamoyl}-L-lysine]			113	40	
O=C(O)CC[C@H](NC(=O)N[C@@H](CCCCNC(=O)[C@H](Cc1ccc2ccccc2c1)NC(=O)c1ccc(CNC(=O)CN2CCN(CC(=O)O)CCN(CC(=O)O)CCN(CC(=O)O)CC2)cn1)C(=O)O)C(=O)O [Example 25-B, (3S,10S,14S)-3-[(naphthalen-2-yl)methyl]-1,4,12-trioxo-1-[5-({2-[4,7,10-tris(carboxymethyl)-1,4,7,10-tetraazacyclododecan-1-yl]acetamido}methyl)pyridin-2-yl]-2,5,11,13-tetraazahexadecane-10,14,16-tricarboxylic acid]			54	5	improved competition in comparison to the cyclohexyl examples 1-A and 1-B
NCC1CCC(C(=O)N[C@@H](CCCNC(N)=O)C(=O)NCCCC[C@H](NC(=O)N[C@@H](CCC(=O)O)C(=O)O)C(=O)O)CC1 (stereo partly drawn) [Example 4-A, N^6—{N^2-[(1r,4S)-4-(aminomethyl)cyclohexane-1-carbonyl]-N^5-carbamoyl-L-ornithyl}-N^2-{[(1S)-1,3-dicarboxypropyl]carbamoyl}-L-lysine]			106	112	
NCc1ccc(C(=O)N[C@@H](Cc2ccc3ccccc3c2)C(=O)NCCCC[C@H](NC(=O)N[C@@H](CCC(=O)O)C(=O)O)C(=O)O)cn1 [Example 26-A, (3S,10S,14S)-1-[6-(aminomethyl)pyridin-3-yl]-3-[(naphthalen-2-yl)methyl]-1,4,12-trioxo-2,5,11,13-tetraazahexadecane-10,14,16-tricarboxylic acid]			33	6	improved competition in comparison to the cyclohexyl examples 1-A and 1-B
NC[C@H]1CC[C@H](C(=O)N[C@@H](Cc2ccc(-c3ccccc3)cc2)C(=O)NCCCC[C@H](NC(=O)N[C@@H](CCC(=O)O)C(=O)O)C(=O)O)CC1 [Example 11a-A, (3S,10S,14S)-1-[(1r,4S)-4-(aminomethyl)cyclohexyl]-3-[([1,1′-biphenyl]-4-yl)methyl]-1,4,12-trioxo-2,5,11,13-tetraazahexadecane-10,14,16-tricarboxylic acid]			110	103	
NC[C@H]1CC[C@H](C(=O)N[C@@H](CCCCNC(=O)c2cccnc2)C(=O)NCCCC[C@H](NC(=O)N[C@@H](CCC(=O)O)C(=O)O)C(=O)O)CC1 [Example 9-A, N^6—{N^2-[(1r,4S)-4-(aminomethyl)cyclohexane-1-carbonyl]-N^6-(pyridine-3-carbonyl)-L-lysyl}-N^2-{[(1S)-1,3-dicarboxypropyl]carbamoyl}-L-lysine]			147	114	
NC[C@H]1CC[C@H](C(=O)N[C@@H](Cc2ccc3ccccc3n2)C(=O)NCCCC[C@H](NC(=O)N[C@@H](CCC(=O)O)C(=O)O)C(=O)O)CC1 [Example 17-A, N^6—{N-[(1r,4S)-4-(aminomethyl)cyclohexane-1-carbonyl]-3-(quinolin-2-yl)-L-alanyl}-N^2-{[(1S)-1,3-dicarboxypropyl]carbamoyl}-L-lysine]			84	56	
NC[C@H]1CC[C@H](C(=O)N[C@@H](Cc2ccc(O)cc2)C(=O)NCCCC[C@H](NC(=O)N[C@@H](CCC(=O)O)C(=O)O)C(=O)O)CC1 [Example 15-A, N^6—{N-[(1r,4S)-4-(aminomethyl)cyclohexane-1-carbonyl]-L-tyrosyl}-N^2-{[(1S)-1,3-dicarboxypropyl]carbamoyl}-L-lysine]			133	111	
NCc1ccc(C(=O)N[C@@H](Cc2ccc3ccccc3n2)C(=O)NCCCC[C@H](NC(=O)N[C@@H](CCC(=O)O)C(=O)O)C(=O)O)nc1 [Example 34-A, N^6—{N-[5-(aminomethyl)pyridine-2-carbonyl]-3-(quinolin-2-yl)-L-alanyl}-N^2-{[(1S)-1,3-dicarboxypropyl]carbamoyl}-L-lysine]			50	9	improved competition
O=C(O)CC[C@H](NC(=O)N[C@@H](CCCCNC(=O)[C@@H](Cc1cnc2ccccc2c1)NC(=O)c1ccc(CNC(=O)CN2CCN(CC(=O)O)CCN(CC(=O)O)CCN(CC(=O)O)CC2)cn1)C(=O)O)C(=O)O [Example 32-B, N^6-{3-(quinolin-3-yl)-N-[5-({2-[4,7,10-tris(carboxymethyl)-1,4,7,10-tetraazacyclododecan-1-yl]acetamido}methyl)pyridine-2-carbonyl]-D-alanyl}-N^2-{[(1S)-1,3-dicarboxypropyl]carbamoyl}-L-lysine]			88	35	
Cc1cc(C(=O)NCCN(CCCN(CCNC(=O)c2cc(C)n(CC(=O)O)c(=O)c2O)CCNC(=O)c2cc(C)n(CC(=O)NCc3ccc(C(=O)N[C@@H](Cc4ccc5ccccc5n4)C(=O)NCCCC[C@H](NC(=O)N[C@@H](CCC(=O)O)C(=O)O)C(=O)O)nc3)c(=O)c2O)CCNC(=O)c2cc(C)n(CC(=O)O)c(=O)c2O)c(O)c(=O)n1CC(=O)O [34-C monomer]			58	10	
